Values quoted from earlier work in patent publication US12662687B2, “Methods and compositions for the production of xylitol from xylose utilizing dynamic metabolic control” (Duke University, priority 2020, dated 2026).

Target: membrane bound transhydrogenase encoded by the pntAB genes (Escherichia coli, UniProt P07001+P0AB67)
Conditions: competitive inhibitor, reported value

membrane bound transhydrogenase encoded by the pntAB genes, sequence (P07001 whole entry): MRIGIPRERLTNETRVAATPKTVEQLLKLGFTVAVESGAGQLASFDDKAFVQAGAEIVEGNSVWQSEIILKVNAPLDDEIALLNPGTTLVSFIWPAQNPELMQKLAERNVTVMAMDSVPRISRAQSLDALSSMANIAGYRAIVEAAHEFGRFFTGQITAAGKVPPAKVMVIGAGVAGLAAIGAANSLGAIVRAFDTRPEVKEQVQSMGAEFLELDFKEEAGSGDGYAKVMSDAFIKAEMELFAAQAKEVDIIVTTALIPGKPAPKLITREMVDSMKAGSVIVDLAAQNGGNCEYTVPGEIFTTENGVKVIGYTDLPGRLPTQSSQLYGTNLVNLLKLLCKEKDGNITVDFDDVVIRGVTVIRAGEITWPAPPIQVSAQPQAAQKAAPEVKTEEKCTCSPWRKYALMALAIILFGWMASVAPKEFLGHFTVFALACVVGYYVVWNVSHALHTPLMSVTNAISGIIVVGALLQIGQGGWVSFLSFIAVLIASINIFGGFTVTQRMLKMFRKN
membrane bound transhydrogenase encoded by the pntAB genes, sequence (P0AB67 whole entry): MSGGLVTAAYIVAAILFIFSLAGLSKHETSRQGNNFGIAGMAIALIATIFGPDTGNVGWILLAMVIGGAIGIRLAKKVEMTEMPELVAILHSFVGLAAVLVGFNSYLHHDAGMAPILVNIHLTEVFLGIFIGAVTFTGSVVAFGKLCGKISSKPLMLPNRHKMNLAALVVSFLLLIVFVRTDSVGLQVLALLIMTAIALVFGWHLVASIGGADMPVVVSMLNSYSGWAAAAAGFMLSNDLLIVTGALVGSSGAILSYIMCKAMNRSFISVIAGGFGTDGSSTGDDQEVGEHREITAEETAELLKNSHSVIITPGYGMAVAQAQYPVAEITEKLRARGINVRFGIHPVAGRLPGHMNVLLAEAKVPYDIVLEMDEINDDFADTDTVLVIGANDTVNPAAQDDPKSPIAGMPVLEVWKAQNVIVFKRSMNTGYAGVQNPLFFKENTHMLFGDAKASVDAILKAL

## CCCCCCCCCCCCCCCC(=O)SCCNC(=O)CCNC(=O)[C@H](O)C(C)(C)COP(=O)(O)OP(=O)(O)OC[C@H]1O[C@@H](n2cnc3c(N)ncnc32)[C@H](O)[C@@H]1OP(=O)(O)O [Palmitoyl-CoA]
  Ki: 1 to 5 µM
